Where a name gives a salt, the structure may show the parent alone.
target: T1, rat α2B (RNG gene) receptor (Rattus norvegicus, UniProt P19328); experiment: RSAT (Receptor Selection and Amplification Technology) assay, alpha 2B; assay type: cell-based; settings: ratio of maximal effect to that of standard full agonist oxymetazoline
T1 construct: expressed in transfected cells; host or cells: NIH-3T3 cells, calcium phosphate cotransfection
T1 sequence (P19328 1-453): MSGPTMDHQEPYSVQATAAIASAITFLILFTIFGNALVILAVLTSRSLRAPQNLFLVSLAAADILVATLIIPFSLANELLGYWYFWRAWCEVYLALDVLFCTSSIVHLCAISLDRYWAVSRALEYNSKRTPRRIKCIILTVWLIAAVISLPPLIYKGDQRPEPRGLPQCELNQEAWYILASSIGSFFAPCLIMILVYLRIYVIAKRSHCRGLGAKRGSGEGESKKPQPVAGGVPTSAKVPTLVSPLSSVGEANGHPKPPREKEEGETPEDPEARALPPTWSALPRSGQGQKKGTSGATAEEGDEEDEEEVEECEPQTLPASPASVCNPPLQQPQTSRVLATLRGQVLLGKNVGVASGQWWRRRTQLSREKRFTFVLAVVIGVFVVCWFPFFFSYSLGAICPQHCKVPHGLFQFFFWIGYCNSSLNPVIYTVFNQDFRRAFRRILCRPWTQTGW
Excerpt: This preferential activity can be determined in a variety of functional assays such as Cyclic AMP Production, Shimizu et al, J. Neurochem. […] In the study below, the RSAT assay on cells that have been transiently transfected with the human α2A (c10 gene), rat α2B (RNG gene) and human α2C (c4 gene) receptors was used.
The assay measures a receptor-mediated loss of contact inhibition that results in selective proliferation of receptor-containing cells in a mixed population of confluent cells. The increase in cell number is assessed with an appropriate transfected marker gene such as b-galactosidase, the activity of which can be easily measured in a 96-well format. Receptors that activate the G protein, Gq, elicit this response. Alpha2 receptors, which normally couple to Gi, activate the RSAT response when coexpressed with a hybrid Gq protein that has a Gi receptor recognition domain, called Gq/i5^2.
NIH-3T3 cells are plated at a density of 2×10^6 cells in 15 cm dishes and maintained in Dulbecco's modified Eagle's medium supplemented with 10% calf serum. One day later, cells are cotransfected by calcium phosphate precipitation with mammalian expression plasmids encoding p-SV-b-galactosidase (5-10 mg), receptor (1-2 mg) and G protein (1-2 mg). 40 mg salmon sperm DNA may also be included in the transfection mixture. Fresh media is added on the following day and 1-2 days later, cells are harvested and frozen in 50 assay aliquots. Cells are thawed and 100 ml added to […] aliquots of various concentrations of drugs in triplicate in 96-well dishes. Incubations continue 72-96 hr at 37°. After washing with phosphate-buffered saline, b-galactosidase enzyme activity is determined by adding 200 ml of the chromogenic substrate (consisting of 3.5 mM o-nitrophenyl-b-D-galactopyranoside and 0.5% nonidet P-40 in phosphate buffered saline), incubating overnight at 30° and measuring optical density at 420 nm. The absorbence is a measure of enzyme activity, which depends on cell number and reflects a receptor-mediated cell proliferation. The EC50 and maximal effect of each drug at each alpha2 receptor is determined. The efficacy or intrinsic activity is calculated as a ratio of the maximal effect of the drug to the maximal effect of a standard full agonist for each receptor subtype.

SMILES	Intrinsic Activity Relative to Oxymetazoline, Alpha 2B
C1=CC(Cc2c[nH]cn2)CCC1 (stereo not drawn) [Example U-1, 4(5)-cyclohex-2-enylmethyl-1H-imidazole, but-2-enedioic acid salt]	0.6
COc1ccc2c(c1)CC(Cc1c[nH]cn1)CC2.Cl (stereo not drawn) [Example B-1, 4(5)-(7-methoxy-1,2,3,4-tetrahydronaphthalen-2-ylmethyl)-1H-imidazole, hydrogen chloride salt]	0.45
Cc1ccccc1C1C2CCC(C2)C1/N=C1/NCCO1 [Example D-2, oxazolidin-2-ylidene-(3-o-tolylbicyclo[2.2.1]hept-2-yl) amine]	0.75
c1ccc2c(c1)CC(Cc1c[nH]cn1)C2 [Example B-7c, 4(5)-indan-2-ylmethyl-1H-imidazole]	0.9
C1CO/C(=N\C2CC3CCC2C3)N1 [Example D-3, bicyclo[2.2.1]hept-2-yl oxazolidin-2-ylidene amine]	0.4
O=C1c2cccnc2CCC1Cc1c[nH]cn1 (stereo not drawn) [Example Q-3, 6-(1H-imidazol-4(5)-ylmethyl)-7,8-dihydro-6H-quinolin-5-one]	0.9
c1nc(Cc2ccoc2)c[nH]1 [Example C-6, 4(5)-furan-3-ylmethyl-1H-imidazole]	0.67
c1ccc(-c2csc(Cc3c[nH]cn3)c2)cc1 [Example C-13, 4(5)-(4-phenylthiophen-2-ylmethyl)-1H-imidazole]	0.5
CC1(C)CC(Cc2c[nH]cn2)Cc2ccccc21 (stereo not drawn) [Example B-10, 4(5)-(4,4-dimethyl-1,2,3,4-tetrahydronaphthalen-2-ylmethyl)-1H-imidazole]	0.3
O=C1/C(=C/c2c[nH]cn2)CCc2ncccc21 [Example Q-2, (E)-6-(1H-imidazol-4(5)-ylmethylene)-7,8-dihydro-6H-quinolin-5-one]	0.87
CC1C=CC(Cc2c[nH]cn2)CC1 (stereo not drawn) [Example U-2, 4(5)-(4-methyl-cyclohex-2-enylmethyl)-1H-imidazole, but-2-enedioic acid salt]	0.6
O=C1/C(=C/c2c[nH]cn2)Cc2ccccc21 [Example B-7a, 2-(1-H-imidazol-4(5)-ylmethylene)indan-1-one]	0.3
CC(c1c[nH]cn1)c1ccco1 (stereo not drawn) [L, 4(5)-(1-furan-2-ylethyl)-1H-imidazole]	0.9
CC1=C(Cc2c[nH]cn2)COc2ccccc21 [Example 1G]	0.6
Cc1ccc(N=C2NCCN2)c2c1NCCO2.Cl [G, imidazolin-2-ylidene-(5-methyl-3,4-dihydro-2H-benzo[1,4]oxazin-8-yl) amine, hydrogen chloride salt]	0.87
CC1=CCCCC1Cc1c[nH]cn1 (stereo not drawn) [Example 1M]	0.6
O=C1/C(=C/c2c[nH]cn2)COc2ccccc21 [Example B-2a, 3-(1H-imidazol-4(5)-ylmethylene)chroman-4-one]	0.63
C1=NC(CC2CCc3ccccc3C2)CN1 (stereo not drawn) [I, 4(5)-(1,2,3,4-tetrahydronaphthalen-2-ylmethyl)-4,5-dihydro-1H-imidazole, methane sulfonic acid salt]	0.5
O=C1/C(=C/c2c[nH]cn2)CCc2nccnc21 [Example R-1, (E)-6-(1H-imidazol-4(5)-ylmethylene)-7,8-dihydro-6H-quinoxalin-5-one]	0.8
O=C1CCCCC1Cc1c[nH]cn1 (stereo not drawn) [V, 2-(1H-Imidazole-4(5)-ylmethyl)-cyclohexanone, but-2-enedioic acid salt]	0.4
c1nc(Cc2cc3c(s2)CCCC3)c[nH]1 [Example K-1, 4(5)-(4,5,6,7-tetrahydrobenzo[b]thiophen-2-ylmethyl)-1H-imidazole]	0.53

SMILES	Intrinsic Activity Relative to Oxymetazoline, Alpha 2B
C=CC1=CCC(Cc2c[nH]cn2)CC1 (stereo not drawn) [Example 1-A]	0.7
c1nc(Cc2cc3c(s2)SCCC3)c[nH]1 [Example K-3, 4(5)-(5,6-dihydro-4H-thieno[2,3-b]thiopyran-2-ylmethyl)-1H-imidazole]	0.37
C#CC1=CC(Cc2c[nH]cn2)CCC1 (stereo not drawn) [Example 1O]	0.8
CC(C)(C)c1ccc(Cc2c[nH]cn2)o1 [Example K-2, 4(5)-(5-tert-butylfuran-2-ylmethyl)-1H-imidazole]	0.7
Cc1ccc2c(c1)CC(Cc1c[nH]cn1)CC2.Cl (stereo not drawn) [Example B-8b, 4(5)-(7-methyl-1,2,3,4-tetrahydronaphthalen-2-ylmethyl)-1H-imidazole, hydrogen chloride salt]	0.6
Cc1c(N=C2NCCN2)ccc2c1NC(=O)CO2 [F, 6-(imidazolidin-2-ylideneamino)-5-methyl-4H-benzo[1,4]oxazin-3-one]	0.9
O=C1c2ccccc2SCC1Cc1c[nH]cn1 (stereo not drawn) [Example B-5b, 3-(1H-imidazol-4(5)-ylmethyl)thiochroman-4-one]	0.5
COc1ccc2c(c1)C(=O)C(Cc1c[nH]cn1)CC2 (stereo not drawn) [Example B-1a, 2-(1H-imidazol-4(5)-ylmethyl)-7-methoxy-3,4-dihydro-2H-naphthalen-1-one]	0.6
Cc1ccc2c(c1)C(=O)C(Cc1c[nH]cn1)CC2 (stereo not drawn) [Example B-8a, 2-(1-H-imidazol-4(5)-ylmethyl)-7-methyl-3,4-dihydro-2H-naphthalen-1-one]	0.4
CC1=CC(Cc2c[nH]cn2)CC(C)(C)C1 (stereo not drawn) [Example T-2, 4(5)-(3,5,5-trimethyl-cyclohex-2-enylmethyl)-1H-imidazole, but-2-endioic acid salt]	0.7
CC1=CC(Cc2c[nH]cn2)CCC1 (stereo not drawn) [Example T-1, 4(5)-(3-methyl-cyclohex-2-enylmethyl)-1H-imidazole, but-2-enedioic acid salt]	0.8
Cl.c1nc(CC2CC3CCCC3C2)c[nH]1 (stereo not drawn) [Example O, 4(5)-octahydro pentalen-2-ylmethyl-1H-imidazole, hydrochloride]	0.67
Cc1csc(Cc2c[nH]cn2)c1.Cl [Example C-14, 4(5)-(4-methylthiophen-2-ylmethyl)-1H-imidazole, hydrochloride salt]	0.7
OC1c2ccccc2OCC1Cc1c[nH]cn1 (stereo not drawn) [Example B-2c, 3-(1H-imidazol-4(5)-ylmethyl)chroman-4-ol]	0.65
CC1=CC(Cc2c[nH]cn2)CC1 (stereo not drawn) [Example T-3, 4(5)-(3-methylcyclopent-2-enylmethyl)-1H-imidazole, but-2-enedioic acid salt]	1.08
O=C1c2cnccc2CCC1Cc1c[nH]cn1 (stereo not drawn) [Example P-1, 7-(1H-imidazol-4(5)-ylmethyl)-6,7-dihydro-5H-isoquinoline-8-one, fumarate]	0.4
C#CC1=CCC(Cc2c[nH]cn2)CC1 (stereo not drawn) [Example 1K]	0.6
O=C1c2ccncc2CCC1Cc1c[nH]cn1 (stereo not drawn) [Example R-2, 6-(1H-imidazol-4(5)-ylmethyl)-7,8-dihydro-6H-isoquinolin-5-one, dihydrochloride]	0.6
CCC1=CC(Cc2c[nH]cn2)CC1 (stereo not drawn) [Example 1Q]	0.75
C1=C(Cc2c[nH]cn2)CSc2ccccc21 [Example 1F]	0.8
c1cc2c(cn1)CCC(Cc1c[nH]cn1)C2 (stereo not drawn) [Example R-3, 6-(1H-imidazol-4(5)-ylmethyl)-5,6,7,8-tetrahydro-isoquinoline, fumarate]	0.6
